PubChem BioAssay (NCI)
Where “and” joins values, the source holds several entries; their conditions need not be identical. Identical values can stand only once.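 Five concentrations, 48 hours, 96-well plates. GI50 is the concentration that inhibits growth by half. TGI: total growth inhibition.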

What was measured:
Assay in all cases: NCI-60 cell line screen, 48 h
HCT-15 colon = system: HCT-15 colon
HOP-92 NSCLC = system: HOP-92 NSCLC
HT29 colon = system: HT29 colon
OVCAR-3 ovarian = system: OVCAR-3 ovarian
RPMI-8226 leukemia = system: RPMI-8226 leukemia
SF-268 CNS = system: SF-268 CNS
SN12C renal = system: SN12C renal
SNB-19 CNS = system: SNB-19 CNS
U251 CNS = system: U251 CNS
UO-31 renal = system: UO-31 renal

SMILES | GI50 (HCT-15 colon) | TGI (HCT-15 colon) | GI50 (HOP-92 NSCLC) | TGI (HOP-92 NSCLC) | GI50 (HT29 colon) | TGI (HT29 colon) | GI50 (OVCAR-3 ovarian) | TGI (OVCAR-3 ovarian) | GI50 (RPMI-8226 leukemia) | TGI (RPMI-8226 leukemia) | GI50 (SF-268 CNS) | TGI (SF-268 CNS) | GI50 (SN12C renal) | TGI (SN12C renal) | GI50 (SNB-19 CNS) | TGI (SNB-19 CNS) | GI50 (U251 CNS) | TGI (U251 CNS) | GI50 (UO-31 renal) | TGI (UO-31 renal)
CCSc1nc(N2CCCCC2)c2cn[nH]c2n1 | > 100 µM | > 100 µM | 18.1 µM | > 100 µM | 66.3 µM | > 100 µM | 27.9 µM | > 100 µM | 28 µM | > 100 µM | 23.6 µM | 65.8 µM | 25.7 µM | > 100 µM | 45.6 µM | > 100 µM | 88.3 µM | > 100 µM | 34 µM | > 100 µM
CC(=O)NC(CCCCNC(=O)OC(C)(C)C)C(=O)O (stereo not drawn) |  | > 100 µM |  |  |  | > 100 µM |  | > 100 µM |  | > 100 µM |  | > 100 µM |  |  |  | > 100 µM |  | > 100 µM |  | > 100 µM
CCN(CC)CCC(=O)c1ccccc1 |  | 38.5 µM |  | 28.5 µM |  | 70.2 µM |  | 38.8 µM |  | 15.6 µM |  | 40.5 µM |  | 35.2 µM |  | > 100 µM |  | 47.4 µM |  | 93 µM
O=C(O)/C=C/c1cnc[nH]1 | 284 µM and > 500 µM | > 500 µM |  | > 500 µM |  | > 500 µM |  | > 500 µM |  | > 500 µM | > 500 µM and 70 µM | > 500 µM |  | > 500 µM |  | > 500 µM |  | > 500 µM |  | > 500 µM
COc1cccc(C2C(C(=O)O)=C(CO)Oc3cc4c(cc32)OCO4)c1 (stereo not drawn) |  | > 100 µM |  | > 100 µM |  | > 100 µM |  | > 100 µM |  | > 100 µM |  | > 100 µM |  | > 100 µM |  | > 100 µM |  | > 100 µM |  | > 100 µM
CCOc1ccc(N=Nc2ccc3oc(=O)c(/C(C)=N\NC(=O)CC(=O)Nc4ccc(Cl)cc4)cc3c2)cc1 |  | 26.4 µM |  | 54.9 µM |  |  |  | 30.4 µM |  | 64.7 µM |  | 41.5 µM |  | 81.1 µM |  | > 100 µM |  | 34 µM |  | 36.9 µM
CCOC(=O)C1(C(=O)OCC)CSC1 |  | > 100 µM |  | > 100 µM |  | > 100 µM |  | > 100 µM |  |  |  | > 100 µM |  | > 100 µM |  | > 100 µM |  | > 100 µM |  | > 100 µM
